Assay: oral bioavailability in dogs
Assay type: in vivo
Settings: both sexes, beagle, dog, plasma; unformulated solid in a capsule dosage form; 5 mg/kg oral dose in dogs
Procedure: Dogs (beagle dogs, mixed sexes, weighing 7-14 kg) were fasted overnight prior to dosing, but were permitted water ad libitum. Each dog received a 100 μg/kg subcutaneous dose of histamine approximately 30 minutes prior to dosing. Each dog received a single dosage form corresponding to a 5 mg/kg dose of the drug. The dose was followed by approximately 10 milliliters of water. Blood samples were obtained from each animal prior to dosing and 0.25, 0.5, 1.0, 1.5, 2, 3, 4, 6, 8, 10, and 12 hours after drug administration. The plasma was separated from the red cells by centrifugation and frozen (−30° C.) until analysis. Concentrations of parent drug were determined by reverse phase HPLC with low wavelength UV detection following liquid-liquid extraction of the plasma samples. The parent drug area under the curve was calculated by the trapezoidal method over the time course of the study. The absolute bioavailability of each test composition was calculated by comparing the area under the curve after oral dosing to that obtained from a single intravenous dose. Each capsule or capsule composition was evaluated in a group containing at least six dogs; the values reported are averages for each group of dogs.

bioavailability: < 2%
Structure (SMILES): CC(C)c1nc(CN(C)C(=O)NC(C(=O)NC(Cc2ccccc2)CC(O)C(Cc2ccccc2)NC(=O)OCc2cncs2)C(C)C)cs1 (stereo not shown) [compound of formula I]
